Patent US20190046490A1, “METHODS OF TREATING LACTOSE INTOLERANCE” (Nogra Pharma Limited, priority 2016, published 2019)

System: weaned rats fed with a lactose-enriched diet
Assay: Symptoms associated with lactose intolerance in weaned rats fed a lactose-enriched diet
Type: in vivo
Details: rats on lactose-enriched diet
Description: Animal experiments were performed in the accredited Pasteur Institute animal care facility (Institut Pasteur de Lille, France; n° B59-35009) according to governmental guidelines (n° 2010/63/UE; Décret 2013-118) and animal ethics committee approval. Specific pathogen-free male C57BL/6 mice and Sprague-Dawley rats were obtained from Janvier Labs (France). Mice and rats were housed 5 animals/cage and 3 animals/cage, respectively, in a specific pathogen-free facility, in an air-conditioned room with controlled temperature (22±1° C.), humidity (65-70%), and 12 h light/12 h dark cycles. Animals were fed with standard laboratory chow (except when indicated) and were provided with autoclaved tap water ad libitum. Animals were acclimatized for at least 1 week before entering the study.
In addition, the effect of GED on the symptoms associated with lactose intolerance was evaluated in weaned rats fed with a lactose-enriched diet provided by Ssniff Spezialdiäten GmbH (Soest, Germany). Animals were monitored daily, weighed, and stool consistencies were evaluated.
SCFA were extracted and measured as described in […], which is incorporated herein by reference.

## COC(Cc1ccc(N)cc1)C(=O)O (centres unmarked) [GED, 3-(4′-aminophenyl)2-methoxypropionic acid]
Day 4
  concentration of short-chain fatty acids (SCFA) in caecal contents: significant decrease
Sacrificed at day 4, data not shown
  caecum volume compared to untreated rats: significant decrease
